Here are results for 71 compounds from PMC5363571 (Oncotarget, 2016).

Counter-ions that a name gives are not always drawn. Where only a bound is given, the exact number is not on record here.

This assay deals with USP7 (Homo sapiens, UniProt Q93009). Description: biochemical. Also noted: Ub-AMC hydrolysis by recombinant USP7 (20 nM), 30 min pre-incubation, fluorescence read-out. The note with it: read-out: % Inhibition at 50 μM.
Sequence of USP7 (Q93009 whole entry): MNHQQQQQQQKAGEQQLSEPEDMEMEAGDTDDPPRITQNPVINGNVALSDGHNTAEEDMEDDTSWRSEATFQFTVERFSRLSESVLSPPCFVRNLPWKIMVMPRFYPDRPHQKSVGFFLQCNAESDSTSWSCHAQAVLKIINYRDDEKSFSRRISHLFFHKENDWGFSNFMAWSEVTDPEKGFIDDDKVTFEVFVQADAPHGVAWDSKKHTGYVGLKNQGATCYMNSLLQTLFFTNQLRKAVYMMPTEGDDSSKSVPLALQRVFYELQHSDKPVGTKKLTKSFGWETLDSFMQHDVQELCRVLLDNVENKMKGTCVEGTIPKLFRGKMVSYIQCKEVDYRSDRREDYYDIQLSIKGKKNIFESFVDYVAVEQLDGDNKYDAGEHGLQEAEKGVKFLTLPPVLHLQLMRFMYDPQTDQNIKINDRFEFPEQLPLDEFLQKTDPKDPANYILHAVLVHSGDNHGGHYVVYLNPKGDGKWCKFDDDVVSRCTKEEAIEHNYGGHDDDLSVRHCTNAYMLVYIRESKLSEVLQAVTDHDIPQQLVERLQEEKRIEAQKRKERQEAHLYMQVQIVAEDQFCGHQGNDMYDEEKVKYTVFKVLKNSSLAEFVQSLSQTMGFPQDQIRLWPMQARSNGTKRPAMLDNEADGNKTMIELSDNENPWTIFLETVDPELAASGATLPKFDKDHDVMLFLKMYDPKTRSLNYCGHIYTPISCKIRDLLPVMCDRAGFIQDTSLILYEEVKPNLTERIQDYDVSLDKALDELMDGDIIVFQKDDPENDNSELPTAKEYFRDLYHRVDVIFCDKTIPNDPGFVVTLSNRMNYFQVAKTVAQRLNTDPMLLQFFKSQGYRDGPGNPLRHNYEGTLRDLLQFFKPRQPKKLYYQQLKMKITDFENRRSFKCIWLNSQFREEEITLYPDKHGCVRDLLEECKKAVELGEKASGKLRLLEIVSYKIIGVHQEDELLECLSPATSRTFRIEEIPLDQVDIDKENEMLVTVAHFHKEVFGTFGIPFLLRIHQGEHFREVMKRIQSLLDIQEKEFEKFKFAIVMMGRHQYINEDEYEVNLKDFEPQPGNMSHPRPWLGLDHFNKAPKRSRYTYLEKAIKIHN
For `CC1(C)CC[C@]2(C(=O)O)CC[C@]3(C)C(=CC[C@@H]4[C@@]5(C)CC[C@H](O)[C@@](C)(CO)[C@@H]5CC[C@]43C)[C@@H]2C1` [Hederagenin], the inhibition (as a rule, the percentage by which the read-out fell short of the control) at 50 µM is 36.5%.

In the case of `CC(C)C(=O)c1c(C(C)C)nn2ccccc12` [Ibudilast], the inhibition at 50 µM was less than 5%.

Regarding `CC(=O)[C@]1(O)Cc2c(O)c3c(c(O)c2[C@@H](O[C@H]2C[C@H](N)[C@H](O)[C@H](C)O2)C1)C(=O)c1ccccc1C3=O` [Idarubicin], the inhibition at 50 µM was less than 5%.

Consider `c1ccc2c(c1)OCC(C1=NCCN1)O2` (centres unmarked) [Idazoxan], for which the inhibition at 50 µM was less than 5%.

On to `COC1=C(OC)C(=O)C(CCCCCCCCCCO)=C(C)C1=O` [Idebenone], for which the inhibition at 50 µM is less than 5%.

On to `CN(C)CCCN1c2ccccc2CCc2ccccc21` [Imipramine HCl], for which the inhibition at 50 µM amounted to 26.5%.

In the case of `CC(C)[N+]1(C)C2CCC1CC(OC(=O)C(CO)c1ccccc1)C2` (centres unmarked) [Ipratropium Br], the inhibition at 50 µM is less than 5%.

For the compound `Nc1nc(N)nc(-c2cc(Cl)ccc2Cl)n1` [Irsogladine maleate], the inhibition at 50 µM was less than 5%.

`O=C(c1ccc(F)cc1)C1CCN(CCn2c(=O)[nH]c3ccccc3c2=O)CC1` [Ketanserin tartrate]: the inhibition at 50 µM is less than 5%.

`CC(C(=O)O)c1cccc(C(=O)c2ccccc2)c1` (centres unmarked) [Ketoprofen]: the inhibition at 50 µM was less than 5%.

With `N[C@@H](Cc1cc(I)c(Oc2cc(I)c(O)c(I)c2)c(I)c1)C(=O)O` [L-thyroxine [(3-[4-(4-hydroxy-3,5-diiodophenoxy)-3,5-diiodophenyl]-l-alanine]], the inhibition at 50 µM came out at 65.3%.

On to `CS(=O)(=O)CCNCc1ccc(-c2ccc3ncnc(Nc4ccc(OCc5cccc(F)c5)c(Cl)c4)c3c2)o1` [Lapatinib], for which the inhibition at 50 µM was less than 5%.

On to `CC(C)OC(=O)CCC/C=C\C[C@@H]1[C@@H](CC[C@@H](O)CCc2ccccc2)[C@H](O)C[C@@H]1O` [Latanoprost], for which the inhibition at 50 µM is 6.9%.

As for `Cc1oncc1C(=O)Nc1ccc(C(F)(F)F)cc1` [Leflunomide], the inhibition at 50 µM was less than 5%.

Turning to `c1ccc([C@H]2CN3CCSC3=N2)cc1` [Levamisole HCl], the inhibition at 50 µM was less than 5%.

With `N[C@@H](Cc1ccc(O)c(O)c1)C(=O)O` [Levodopa], the inhibition at 50 µM is less than 5%.

In the case of `C[C@H]1COc2c(N3CCN(C)CC3)c(F)cc3c(=O)c(C(=O)O)cn1c23` [Levofloxacin HCl], the inhibition at 50 µM is less than 5%.

Take `C#C[C@]1(O)CC[C@H]2[C@@H]3CCC4=CC(=O)CC[C@@H]4[C@H]3CC[C@@]21CC` [Levonorgestrel]: the inhibition at 50 µM is less than 5%.

In the case of `CCN(CC)CC(=O)Nc1c(C)cccc1C` [Lidocaine], the inhibition at 50 µM was less than 5%.

Take `CCC[C@@H]1C[C@@H](C(=O)N[C@@H]([C@H]2O[C@H](SC)[C@H](O)[C@@H](O)[C@H]2O)[C@@H](C)O)N(C)C1` [Lincomycin]: the inhibition at 50 µM is less than 5%.

As for `CC(=O)NC[C@H]1CN(c2ccc(N3CCOCC3)c(F)c2)C(=O)O1` [Linezolid], the inhibition at 50 µM was less than 5%.

As to `NCCCC[C@H](N[C@@H](CCc1ccccc1)C(=O)O)C(=O)N1CCC[C@H]1C(=O)O` [Lisinopril], the inhibition at 50 µM is 30.5%.

As for `CN1[C@@H](CC(=O)c2ccccc2)CCC[C@H]1C[C@H](O)c1ccccc1` [Lobeline], the inhibition at 50 µM is less than 5%.

For `CCn1cc(C(=O)O)c(=O)c2cc(F)c(N3CCNC(C)C3)c(F)c21` (centres unmarked) [Lomefloxacin HCl], the inhibition at 50 µM turned out to be 8.6%.

As to `COC(=O)c1ccc(O)c2nc3c(C=O)c(O)cc(O)c3nc12` [Lomofungin], the inhibition at 50 µM was less than 5%.

With `CN(C)C(=O)C(CCN1CCC(O)(c2ccc(Cl)cc2)CC1)(c1ccccc1)c1ccccc1` [Loperamide], the inhibition at 50 µM is less than 5%.

For `CCOC(=O)N1CCC(=C2c3ccc(Cl)cc3CCc3cccnc32)CC1` [Loratadine], the inhibition at 50 µM is 20.4%.

For `CCCCCN(CCCCC)C(=O)C(CCC(=O)O)NC(=O)c1ccc(Cl)c(Cl)c1` (centres unmarked) [Lorglumide], the inhibition at 50 µM is less than 5%.

On to `CCCCc1nc(Cl)c(CO)n1Cc1ccc(-c2ccccc2-c2nnn[nH]2)cc1` [Losartan potassium], for which the inhibition at 50 µM is less than 5%.

For the compound `C=C(C)[C@@H]1CC[C@]2(C)CC[C@]3(C)[C@H](CC[C@@H]4[C@@]5(C)CC[C@H](O)C(C)(C)[C@@H]5CC[C@]43C)[C@@H]12` [Lupeol], the inhibition at 50 µM was less than 5%.

With `C[C@H]1[C@H](C)CC[C@]2(C(=O)O)CC[C@]3(C)C(=CC[C@@H]4[C@@]5(C)C[C@@H](O)[C@H](O)[C@@](C)(CO)[C@@H]5[C@H](O)C[C@]43C)[C@H]12` [Madecassic acid], the inhibition at 50 µM is less than 5%.

`COC(=O)C1=C(C)NC(C)=C(C(=O)OCCN2CCN(C(c3ccccc3)c3ccccc3)CC2)C1c1cccc([N+](=O)[O-])c1` (centres unmarked) [Manidipine]: the inhibition at 50 µM was less than 5%.

As to `CNCCCC12CCC(c3ccccc31)c1ccccc12` [Maprotiline HCl], the inhibition at 50 µM turned out to be 11.3%.

As for `COC(=O)Nc1nc2cc(C(=O)c3ccccc3)ccc2[nH]1` [Mebendazol], the inhibition at 50 µM is less than 5%.

Consider `CNC1(C)C2CCC(C2)C1(C)C` (centres unmarked) [Mecamylamine HCl], for which the inhibition at 50 µM was less than 5%.

Consider `CC(=O)O[C@]1(C(C)=O)CC[C@H]2[C@@H]3C[C@H](C)C4=CC(=O)CC[C@]4(C)[C@H]3CC[C@@]21C` [Medroxyprogesterone 17-acetate], for which the inhibition at 50 µM was less than 5%.

Take `Cc1cccc(Nc2ccccc2C(=O)O)c1C` [Mefenamic acid]: the inhibition at 50 µM was less than 5%.

Take `CC(=O)O[C@]1(C(C)=O)CC[C@H]2[C@@H]3C=C(C)C4=CC(=O)CC[C@]4(C)[C@H]3CC[C@@]21C` [Megestrol acetate]: the inhibition at 50 µM was less than 5%.

For `COc1ccc2[nH]cc(CCNC(C)=O)c2c1` [Melatonin], the inhibition at 50 µM is less than 5%.

As for `C=C1C[C@H]2[C@@H]3C=C(C)C4=CC(=O)CC[C@]4(C)[C@H]3CC[C@]2(C)[C@@]1(OC(C)=O)C(C)=O` [Melengestrol acetate], the inhibition at 50 µM was less than 5%.

Regarding `Cc1cnc(NC(=O)C2=C(O)c3ccccc3S(=O)(=O)N2C)s1` [Meloxicam], the inhibition at 50 µM was less than 5%.

In the case of `N[C@@H](Cc1ccc(N(CCCl)CCCl)cc1)C(=O)O` [Melphalan], the inhibition at 50 µM was less than 5%.

With `CC12CC3CC(C)(C1)CC(N)(C3)C2` [Memantine HCl], the inhibition at 50 µM was less than 5%.

In the case of `COc1ccc(CN(CCN(C)C)c2ccccn2)cc1` [Mepyramine maleate], the inhibition at 50 µM is less than 5%.

In the case of `CN1CCCCC1CCN1c2ccccc2Sc2ccc([S+](C)[O-])cc21` (centres unmarked) [Mesoridazine besylate], the inhibition at 50 µM was found to be 16.5%.

Take `CN1C[C@@H](NS(=O)(=O)N(C)C)C[C@@H]2c3cccc4c3c(cn4C)C[C@H]21` [Mesulergine HCl]: the inhibition at 50 µM was less than 5%.

Turning to `CN(C)C(=N)NC(=N)N` [Metformin], the inhibition at 50 µM was 8.6%.

As to `Cn1ccnc1S` [Methimazole], the inhibition at 50 µM is less than 5%.

As to `C[C@](N)(Cc1ccc(O)c(O)c1)C(=O)O` [Methyldopa], the inhibition at 50 µM was less than 5%.

Regarding `C[C@H]1C[C@@H]2[C@H]([C@@H](O)C[C@@]3(C)[C@H]2CC[C@]3(O)C(=O)CO)[C@@]2(C)C=CC(=O)C=C12` [Methylprednisolone], the inhibition at 50 µM was less than 5%.

Turning to `CC[C@@H](CO)NC(=O)[C@@H]1C=C2c3cccc4c3c(cn4C)C[C@H]2N(C)C1` [Methysergide], the inhibition at 50 µM is less than 5%.

Take `CCN(CC)CCNC(=O)c1cc(Cl)c(N)cc1OC` [Metoclopramide HCl]: the inhibition at 50 µM was less than 5%.

As for `COCCc1ccc(OCC(O)CNC(C)C)cc1` (centres unmarked) [Metoprolol tartrate], the inhibition at 50 µM was less than 5%.

With `Cc1ncc([N+](=O)[O-])n1CCO` [Metronidazole], the inhibition at 50 µM is less than 5%.

`CC[C@H](C)C(=O)O[C@H]1CCC=C2C=C[C@H](C)[C@H](CC[C@@H]3C[C@@H](O)CC(=O)O3)[C@H]21` [Mevastatin]: the inhibition at 50 µM is less than 5%.

Consider `CN1CCN2c3ccccc3Cc3ccccc3C2C1` (centres unmarked) [Mianserin hcl], for which the inhibition at 50 µM is 21.3%.

`Clc1ccc(COC(Cn2ccnc2)c2ccc(Cl)cc2Cl)c(Cl)c1` (centres unmarked) [Miconazole]: the inhibition at 50 µM was less than 5%.

Consider `CC#C[C@]1(O)CC[C@H]2[C@@H]3CCC4=CC(=O)CCC4=C3[C@@H](c3ccc(N(C)C)cc3)C[C@@]21C` [Mifepristone], for which the inhibition at 50 µM is less than 5%.

Consider `CCCCN1C[C@H](O)[C@@H](O)[C@H](O)[C@H]1CO` [Miglustat], for which the inhibition at 50 µM was less than 5%.

Turning to `Cc1[nH]c(=O)c(C#N)cc1-c1ccncc1` [Milrinone], the inhibition at 50 µM was less than 5%.

For `CCCCCCCCCCCCCCCCOP(=O)([O-])OCC[N+](C)(C)C` [Miltefosine], the inhibition at 50 µM amounted to 6.5%.

With `CN(C)c1ccc(O)c2c1C[C@H]1C[C@H]3[C@H](N(C)C)C(O)=C(C(N)=O)C(=O)[C@@]3(O)C(O)=C1C2=O` [Minocycline HCl], the inhibition at 50 µM was less than 5%.

As for `CO[C@@]12[C@H](COC(N)=O)C3=C(C(=O)C(C)=C(N)C3=O)N1C[C@@H]1N[C@@H]12` [Mitomycin c], the inhibition at 50 µM came to 31.5%.

On to `O=C1c2c(O)ccc(O)c2C(=O)c2c(NCCNCCO)ccc(NCCNCCO)c21` [Mitoxantrone 2HCl], for which the inhibition at 50 µM was less than 5%.

As for `CCOC(=O)[N-]c1c[n+](N2CCOCC2)no1` [Molsidomine], the inhibition at 50 µM is less than 5%.

For the compound `CC(C)(O)c1ccccc1CC[C@@H](SCC1(CC(=O)O)CC1)c1cccc(/C=C/c2ccc3ccc(Cl)cc3n2)c1` [Montelukast], the inhibition at 50 µM was determined as 76.3%.

With `N=C(N)NC(=N)N1CCOCC1` [Moroxydine HCl], the inhibition at 50 µM is 17.2%.

Regarding `COc1c(N2C[C@@H]3CCCN[C@@H]3C2)c(F)cc2c(=O)c(C(=O)O)cn(C3CC3)c12` [Moxifloxacin HCl], the inhibition at 50 µM is less than 5%.

As for `CCCCC(C#N)(Cn1cncn1)c1ccc(Cl)cc1` (centres unmarked) [Myclobutanil], the inhibition at 50 µM is less than 5%.

Regarding `COc1c(C)c2c(c(O)c1C/C=C(\C)CCC(=O)O)C(=O)OC2` [Mycophenolic acid], the inhibition at 50 µM was less than 5%.

Take `COc1ccc2cc(CCC(C)=O)ccc2c1` [Nabumetone]: the inhibition at 50 µM was less than 5%.
